{
  "source": "patent US20210381022A1",
  "about": "“INTEGRATED DRUG DISCOVERY PLATFORM FOR INBORN ERROR OF METABOLISM DISORDERS” (RAMOT AT TEL-AVIV UNIVERSITY LTD., priority 2018, published 2021)",
  "key": {"wild-type strain": {"test_system": "wild-type strain", "experiment": "Yeast growth assay of wild-type strain", "format": "cell-based, Saccharomyces cerevisiae", "settings": "tyrosine in media, EGCG added", "protocol": "(§1) Strains were grown over night at 30° C. in SD medium without adenine. For spotting assays, strains were diluted to 6.25*10^7 cells/mL and were then 5-fold serially diluted and spotted on SD media with the indicated concentrations of adenine or TA (Sigma-Aldrich). Plates were incubated at 30° C. for 2 days. […] For OD600 measurements, strains were diluted to OD600 0.01, 200 μL of cells were platted on 96 wells plates and incubated at 30° C. for 25 hours with continuous shaking. OD600 was measured using Tecan™ SPARK 10M plate reader."}, "fah-1 RNAi treated worms": {"test_system": "fah-1 RNAi treated worms", "experiment": "C. elegans model for Tyrosinemia (fah-1 RNAi)", "format": "in vivo, Caenorhabditis elegans", "settings": "fah-1 RNAi, tyrosine added, EGCG added", "protocol": "(§2) Wild-type N2, RB857 and NL2099 worms were obtained from the Caenorhabditis Genetics Center. RNAi clones was obtained from the Ahringer RNAi library as previously described [Fisher A L, et al., J. Biol. Chem. 283: 9127-9135(2008)]. Worms were grown on NGM media without peptone and the metabolites were added into a boiling media. Baicalein and EGCG were added to a media after cooled down to 45 degrees.\nMutations in different enzymes that are involved in the tyrosine degradation pathway are responsible for different types of Tyrosinemia. The tyrosine degradation pathway in mammals and C. elegans in conserved and the most severe is type I Tyrosinemia, which is caused by mutations affecting the last enzyme in the pathway, fumarylacetoacetate hydrolase (FAH). To study Tyrosinemia in C. elegans model, an RNAi was used that specifically silences the fumarylacetoacetate hydrolase (fah-1), as was previously reported (K10C4.2). RNAi directed against fah-1 causes severe phenotype of reduced size, impaired fertility and reduction of total number of viable worms (FIG. 32)."}, "[1]": {"test_system": "tyrosine aggregates in aro3Δ mutant cells", "experiment": "Flow cytometry with ProteoStat staining of aro3Δ mutant", "format": "cell-based, Saccharomyces cerevisiae", "settings": "tyrosine 0.02 mM, EGCG 5 mM", "protocol": "An amount of 1 mL of logarithmic cells were washed with PBS buffer and sonicated using 15 s pulses at 20% power. For each sample, 2*10^6 cells were resuspended with ProteoStat dye (Enzo Life Sciences) diluted 1:3000 in ProteoStat assay buffer. Cells were incubated for 15 min at room temperature protected from light. Flow cytometry was preformed using Stratedigm S1000EXi and the CellCapTure software (Stratedigm, San Jose, Calif.). Live cells were gated (P1) by forward scatter and side scatter. Fluorescence channels for FITC (530/30) and PE-Cy5 (676/29) were used utilizing a 488 nm laser source. A total of 50,000 events were acquired for each sample. Analyses were performed using FlowJo software (TreeStar, version 10).\nIn order to examine whether the inhibition in cell growth in a non-linear cooperative manner upon tyrosine feeding (FIG. 23A, 23B) is associated with in vivo formation of amyloid-like assemblies, cells were stained with ProteoStat®, a well-established amyloid-specific fluorescent dye that was previously shown to detect the presence of intracellular protein amyloid-like aggregates in living bacterial cells with high specificity, even when the target proteins are expressed at low levels.\nIn order to examine the effect of EGCG on cell growth, the aro3Δ mutant was spotted on 4a.a SD plates that contained tyrosine alone or tyrosine with different concentrations of EGCG. […]"}, "aro3Δ mutant": {"test_system": "aro3Δ mutant", "experiment": "Yeast growth assay of aro3Δ mutant with tyrosine feeding", "format": "cell-based, Saccharomyces cerevisiae", "protocol": "as §1\nThe focus was put on a strain with a deletion of the ARO3 gene in which a significant decrease in cellular growth was observed upon tyrosine feeding (see FIG. 21). The inventors aimed to determine whether the toxic effect was influenced by different levels of tyrosine. Thus, the cellular growth of wild-type and the aro3Δ mutant was examined by serial dilutions on selective plates that were supplemented with different concentrations of tyrosine (FIG. 21A). In addition, cellular growth was also examined by measuring the turbidity of the medium upon addition of the indicated concentration of tyrosine (FIG. 21B). […] Thus, cell growth is affected by tyrosine levels in a dose-dependent manner which further supports the notion that the toxicity in the aro3Δ mutant results from the presence of tyrosine.\nIn order to examine the effect of EGCG on cell growth, the aro3Δ mutant was spotted on 4a.a SD plates that contained tyrosine alone or tyrosine with different concentrations of EGCG. […] Thus, the lag phase in the presence of EGCG was nearly the same as cells unexposed to tyrosine, indicating the potent ability of EGCG to eliminate the tyrosine sensitivity of the aro3Δ mutant. […] Next, the inventors aimed to gain additional insights into the effect of EGCG on the amyloid-like fibrils formed by the accumulation of tyrosine in the aro3Δ mutant cells. For that purpose, cells were stained with the amyloid-specific dye ProteoStat®, and FACS was applied to detect tyrosine aggregates. […] (FIG. 25)."}, "phenylalanine assemblies": {"test_system": "phenylalanine assemblies", "settings": "reference [4]; cited from earlier work"}, "gcv1Δ cells": {"test_system": "gcv1Δ cells", "settings": "SD media with glycine"}, "aro4Δ mutant": {"test_system": "aro4Δ mutant", "experiment": "Yeast growth assay of aro4Δ mutant with phenylalanine", "format": "cell-based, Saccharomyces cerevisiae", "settings": "SD medium with phenylalanine", "source_text": "The focus was put on a strain with a deletion of the ARO4 gene. The inventors aimed to determine whether the toxic effect is influenced by phenylalanine feeding. Thus, the cellular growth of wild-type and the aro4Δ mutant was examined by serial dilutions on selective plates that were supplemented with phenylalanine. In addition, cellular growth was also examined by measuring the turbidity of the medium upon addition of phenylalanine (FIG. 26A, 26B)."}, "[2]": {"test_system": "RB857 (PAH-1 mutant) and N2 (WT) worms", "experiment": "C. elegans model for PKU", "format": "in vivo, Caenorhabditis elegans", "protocol": "as §2\nTo study PKU in C. elegans model, a strain was used with mutation in the PAH-1 gene (RB857)]. […] Next, the effect of one of the previously identified hits i.e. baicalein was examined on the development of worms. The life cycle of C. elegans is comprised of the embryonic stage, four larval stages (L1-L4) and adulthood. The end of each larval stage is marked with a molt, during which a new, stage-specific cuticle is synthesized and the old one is shed."}, "lat1Δ": {"test_system": "lat1Δ", "experiment": "Yeast growth assay of lat1Δ with isoleucine", "format": "cell-based, Saccharomyces cerevisiae", "settings": "minimal media with isoleucine, 40 h", "protocol": "Growth curves of WT and lat1Δ on minimal media with or without […] isoleucine. Cells were incubated at 30° C. for 40 h, with continuous shaking.\nTo establish an in vivo model in yeast for the study of BCAA accumulation and toxicity, the LAT1 gene was disrupted. LAT1 encodes the dihydrolipoamide acetyltransferase component (E2) of the yeast pyruvate dehydrogenase complex. LAT1 catalyzes the oxidative decarboxylation of pyruvate to acetyl-CoA and mutations in DBT1, the human homolog, can lead to Maple Syrup Urine Disease (MSUD)."}},
  "note": "“Also recorded” adds a separate entry of the source.",
  "data": [
    {"smiles": "O=C(O[C@@H]1Cc2c(O)cc(O)cc2O[C@@H]1c1cc(O)c(O)c(O)c1)c1cc(O)c(O)c(O)c1", "note": "[EGCG, epigallocatechin gallate]", "values": [
      {"measurement": "growth of wild-type cells", "setting": "wild-type strain", "value": "no significant changes"},
      {"measurement": "fertility of worms", "setting": "fah-1 RNAi treated worms", "value": "enhance the fertility of worms; also recorded: partially restore"},
      {"measurement": "total number of viable worms", "setting": "fah-1 RNAi treated worms", "value": "elevation of the total number of worms; also recorded: partially restore"},
      {"measurement": "tyrosine aggregates percentage (ProteoStat, FACS)", "setting": "[1]", "value": "dramatic reduction in the tyrosine aggregates percentage"},
      {"measurement": "growth of aro3Δ mutant", "setting": "aro3Δ mutant; 4a.a SD with 0.03 mM tyrosine, different concentrations of EGCG", "value": "significant improvement in growth in a dose-dependent manner"},
      {"measurement": "lag phase of cell growth kinetics", "setting": "aro3Δ mutant; tyrosine in media, EGCG treated vs untreated cells", "value": "notably shorter"},
      {"measurement": "phenylalanine aggregation and cytotoxicity of the assemblies in vitro", "setting": "phenylalanine assemblies", "value": "counteract"}
    ]},
    {"smiles": "NCC(=O)O", "note": "[glycine]", "values": [
      {"measurement": "growth with glycine in the growth medium", "setting": "gcv1Δ cells", "value": "dose-dependent growth inhibition"}
    ]},
    {"smiles": "N[C@@H](Cc1ccccc1)C(=O)O", "note": "[phenylalanine]", "values": [
      {"measurement": "growth of aro4Δ mutant with phenylalanine in the medium", "setting": "aro4Δ mutant", "value": "growth inhibition"},
      {"measurement": "RB857 worms that didn't reach adulthood by day 10", "setting": "[2]; 100 mM Phenylalanine", "value": "more than 90%"},
      {"measurement": "worms reaching adulthood on day 4", "setting": "[2]; RB857, 100 mM phenylalanine in minimal media", "value": "none of the worms reached adulthood on day 4"},
      {"measurement": "number of worms", "setting": "[2]; RB857, phenylalanine added", "value": "significantly reduced the number of worms"}
    ]},
    {"smiles": "CC[C@H](C)[C@H](N)C(=O)O", "note": "[isoleucine]", "values": [
      {"measurement": "growth with isoleucine in the growth medium", "setting": "lat1Δ", "value": "sensitivity"}
    ]}
  ]
}
